Columns and labels:
Format in all cases: physicochemical
[1] = Intrinsic dissolution rate (IDR); details: for Detection in dissolution medium (IDR test): total 120 min
Description: Testing media: water, 0.1N HCl, pH 6.8 USP buffer
About 200 mg Polymorph Form A was weighed into the intrinsic dissolution apparatus (diameter: 0.795 cm) and compressed for 1 minute with 1 ton compression force to make the material compact. The intrinsic dissolution apparatus was slid into the dissolution test chuck and tightened. The shaft in the spindle was adjusted to ensure the exposed surface of the compacted tablet was 3.8 cm from the bottom of the vessel when lowered. The temperature of chamber water was set at 37° C., the shaft rotation at 100 rpm, and the sampling time points at 2, 5, 10, 15, 20, 30, 45, 60, 90 and 120 min. 5 mL of solution was sampled at each time point, and the samples filtered with 0.45 μm filter. The concentration of the filtrates was analyzed by HPLC.

[2] = Hygroscopicity (DVS) of Polymorph Form A
Description: Details of DVS method used in the tests are summarized below: • Test the sorption/desorption profile of testing compound at 25° C. under 0-90% relative humidity. 3.3 HPLC Method
About 10 mg Polymorph Form A was weighed and the sorption/desorption profiles were set at 25° C. under 0-90% relative humidity. The compound after testing was also subjected to an XRPD test to determine if any polymorph changes exist after exposure to a cycle of humidity change.

[3] = Long-term stability (ICH), 25° C./60% RH
Description: Polymorph Form A was manufactured under Good Manufacturing Practices (GMP)-compliant conditions at a scale of 1.26 kg. The container closure for the batch consisted of double-lined low density polyethylene bags placed inside fiberboard drums, and the batch was on ICH stability under storage conditions of 25° C./60% relative humidity (RH) and 40° C./75% RH. Long-term stability data through the 36-month interval and accelerated stability data through the 6-month interval are shown in Tables 2 and 3.
Stability samples were tested according to the protocol (Table 5) and to the same specification as the drug substance. The available stability data for samples stored at 25° C./60% RH and 40° C./75% RH are summarized.

[4] = 25° C., Cycle 1, target 0.0 % P/Po
[5] = 25° C., Cycle 1, target 10.0 % P/Po
[6] = 25° C., Cycle 1, target 20.0 % P/Po
[7] = 25° C., Cycle 1, target 30.0 % P/Po
[8] = 25° C., Cycle 1, target 40.0 % P/Po
[9] = 25° C., Cycle 1, target 50.0 % P/Po
[10] = 25° C., Cycle 1, target 60.0 % P/Po
[11] = 25° C., Cycle 1, target 70.0 % P/Po
[12] = 25° C., Cycle 1, target 80.0 % P/Po
[13] = 25° C., Cycle 1, target 90.0 % P/Po

Cc1cc(C)c(-c2ccc(NC(=O)[C@H](Cc3ccc(C(=O)NCCS(=O)(=O)[O-])cc3)c3ccc(-c4ccc(C(C)(C)C)cc4)cc3)cc2)c(C)c1.[Na+] [Polymorph Form A, Sodium (R)-2-(4-(2-(4′-(tert-butyl)-[1,1′-biphenyl]-4-yl)-3-oxo-3-((2′,4′,6′-trimethyl-[1,1′-biphenyl]-4-yl)amino)propyl)benzamido)ethane-1-sulfonate]
Detection in dissolution medium (IDR test) ([1]; 0.1N HCl): could not be detected | Intrinsic dissolution rate (mg/cm^2/min) ([1]; Water, 37° C., 100 rpm, from data of 10, 15 and 20 min): 0.9681 mg/cm^2/min | Detection in dissolution medium (IDR test) ([1]; pH 6.8 USP buffer): could not be detected | Concentration in dissolution medium (IDR test) ([1]; water, within 5 min, not detected, LOQ): < 0.3051 µg/mL | Change in Mass (%)-ref, Desorption [2, 4]: 0.20% | Change in Mass (%)-ref, Sorption [2, 4]: 0.00% | Change in Mass (%)-ref, Desorption [2, 5]: 1.64% | Change in Mass (%)-ref, Hysteresis [2, 5]: 0.29% | Change in Mass (%)-ref, Sorption [2, 5]: 1.35% | Change in Mass (%)-ref, Desorption [2, 6]: 2.73% | Change in Mass (%)-ref, Hysteresis [2, 6]: 0.39% | Change in Mass (%)-ref, Sorption [2, 6]: 2.34% | Change in Mass (%)-ref, Desorption [2, 7]: 4.08% | Change in Mass (%)-ref, Hysteresis [2, 7]: 0.50% | Change in Mass (%)-ref, Sorption [2, 7]: 3.58% | Change in Mass (%)-ref, Desorption [2, 8]: 5.48% | Change in Mass (%)-ref, Hysteresis [2, 8]: 0.63% | Change in Mass (%)-ref, Sorption [2, 8]: 4.85% | Change in Mass (%)-ref, Desorption [2, 9]: 6.98% | Change in Mass (%)-ref, Hysteresis [2, 9]: 0.87% | Change in Mass (%)-ref, Sorption [2, 9]: 6.11% | Change in Mass (%)-ref, Desorption [2, 10]: 8.08% | Change in Mass (%)-ref, Hysteresis [2, 10]: 0.39% | Change in Mass (%)-ref, Sorption [2, 10]: 7.69% | Change in Mass (%)-ref, Desorption [2, 11]: 13.12% | Change in Mass (%)-ref, Hysteresis [2, 11]: 3.90% | Change in Mass (%)-ref, Sorption [2, 11]: 9.21% | Change in Mass (%)-ref, Desorption [2, 12]: 16.12% | Change in Mass (%)-ref, Hysteresis [2, 12]: 1.04% | Change in Mass (%)-ref, Sorption [2, 12]: 15.09% | Change in Mass (%)-ref, Desorption [2, 13]: 20.08% | Change in Mass (%)-ref, Sorption [2, 13]: 20.08% | Hygroscopicity classification ([2]; DVS, 0 to 90% RH, 25° C.): very hygroscopic | XRPD after hygroscopicity test ([2]; after a cycle of humidity change): no change | weight gain ([2]; from 0 to 90% RH, 25° C.): 20.08% | Appearance ([3]; 25° C./60% RH, 0 months): White | Assay (anhydrous w/w %) ([3]; 25° C./60% RH, 0 months): 101.3 w/w % | Chiral purity (area %) ([3]; 25° C./60% RH, 0 months): 99.9 area % | Individual related substance (area %, w/w), RRT 0.46 ([3]; 25° C./60% RH, 0 months): 0.08 area %, w/w | Individual related substance (area %, w/w), RRT 0.64 ([3]; 25° C./60% RH, 0 months): 0.12 area %, w/w | Individual related substance (area %, w/w), RRT 1.20 ([3]; 25° C./60% RH, 0 months): 0.05 area %, w/w | Purity (% area) ([3]; 25° C./60% RH, 0 months): 99.8 % area | Total related substances ([3]; 25° C./60% RH, 0 months): 0.25% | Water content (%) ([3]; 25° C./60% RH, 0 months): 2.1% | Appearance ([3]; 25° C./60% RH, 3 months): White | Assay (anhydrous w/w %) ([3]; 25° C./60% RH, 3 months): 102.5 w/w % | Chiral purity (area %) ([3]; 25° C./60% RH, 3 months): 99.8 area % | Individual related substance (area %, w/w), RRT 0.46 ([3]; 25° C./60% RH, 3 months): 0.08 area %, w/w | Individual related substance (area %, w/w), RRT 0.64 ([3]; 25° C./60% RH, 3 months): 0.12 area %, w/w | Individual related substance (area %, w/w), RRT 1.20 ([3]; 25° C./60% RH, 3 months): 0.05 area %, w/w | Purity (% area) ([3]; 25° C./60% RH, 3 months): 99.8 % area | Total related substances ([3]; 25° C./60% RH, 3 months): 0.25% | Water content (%) ([3]; 25° C./60% RH, 3 months): 6.1% | Appearance ([3]; 25° C./60% RH, 6 months): White | Assay (anhydrous w/w %) ([3]; 25° C./60% RH, 6 months): 101.1 w/w % | Chiral purity (area %) ([3]; 25° C./60% RH, 6 months): 99.8 area % | Individual related substance (area %, w/w), RRT 0.46 ([3]; 25° C./60% RH, 6 months): 0.08 area %, w/w | Individual related substance (area %, w/w), RRT 0.64 ([3]; 25° C./60% RH, 6 months): 0.11 area %, w/w | Individual related substance (area %, w/w), RRT 1.20 ([3]; 25° C./60% RH, 6 months): 0.05 area %, w/w | Purity (% area) ([3]; 25° C./60% RH, 6 months): 99.8 % area | Total related substances ([3]; 25° C./60% RH, 6 months): 0.24% | Water content (%) ([3]; 25° C./60% RH, 6 months): 6.5% | XRPD ([3]; 25° C./60% RH, 6 months): Same | Appearance ([3]; 25° C./60% RH, 9 months): White | Assay (anhydrous w/w %) ([3]; 25° C./60% RH, 9 months): 101.1 w/w % | Chiral purity (area %) ([3]; 25° C./60% RH, 9 months): 99.6 area % | Individual related substance (area %, w/w), RRT 0.46 ([3]; 25° C./60% RH, 9 months): 0.08 area %, w/w | Individual related substance (area %, w/w), RRT 0.64 ([3]; 25° C./60% RH, 9 months): 0.12 area %, w/w | Individual related substance (area %, w/w), RRT 1.20 ([3]; 25° C./60% RH, 9 months): 0.05 area %, w/w | Purity (% area) ([3]; 25° C./60% RH, 9 months): 99.8 % area | Total related substances ([3]; 25° C./60% RH, 9 months): 0.25% | Water content (%) ([3]; 25° C./60% RH, 9 months): 6.7% | Appearance ([3]; 25° C./60% RH, 12 months): White | Assay (anhydrous w/w %) ([3]; 25° C./60% RH, 12 months): 101.0 w/w % | Chiral purity (area %) ([3]; 25° C./60% RH, 12 months): 99.4 area % | Individual related substance (area %, w/w), RRT 0.46 ([3]; 25° C./60% RH, 12 months): 0.08 area %, w/w | Individual related substance (area %, w/w), RRT 0.64 ([3]; 25° C./60% RH, 12 months): 0.11 area %, w/w | Individual related substance (area %, w/w), RRT 1.20 ([3]; 25° C./60% RH, 12 months): 0.05 area %, w/w | Purity (% area) ([3]; 25° C./60% RH, 12 months): 99.8 % area | Total related substances ([3]; 25° C./60% RH, 12 months): 0.24% | Water content (%) ([3]; 25° C./60% RH, 12 months): 7.0% | XRPD ([3]; 25° C./60% RH, 12 months): Same | Appearance ([3]; 25° C./60% RH, 18 months): White | Assay (anhydrous w/w %) ([3]; 25° C./60% RH, 18 months): 100.9 w/w % | Chiral purity (area %) ([3]; 25° C./60% RH, 18 months): 99.5 area % | Individual related substance (area %, w/w), RRT 0.46 ([3]; 25° C./60% RH, 18 months): 0.08 area %, w/w | Individual related substance (area %, w/w), RRT 0.64 ([3]; 25° C./60% RH, 18 months): 0.12 area %, w/w | Individual related substance (area %, w/w), RRT 1.20 ([3]; 25° C./60% RH, 18 months): 0.06 area %, w/w | Purity (% area) ([3]; 25° C./60% RH, 18 months): 99.7 % area | Total related substances ([3]; 25° C./60% RH, 18 months): 0.26% | Water content (%) ([3]; 25° C./60% RH, 18 months): 6.9% | Appearance ([3]; 25° C./60% RH, 24 months): White | Assay (anhydrous w/w %) ([3]; 25° C./60% RH, 24 months): 101.6 w/w % | Chiral purity (area %) ([3]; 25° C./60% RH, 24 months): 100.0 area % | Individual related substance (area %, w/w), RRT 0.46 ([3]; 25° C./60% RH, 24 months): 0.08 area %, w/w | Individual related substance (area %, w/w), RRT 0.64 ([3]; 25° C./60% RH, 24 months): 0.12 area %, w/w | Individual related substance (area %, w/w), RRT 1.20 ([3]; 25° C./60% RH, 24 months): 0.07 area %, w/w | Purity (% area) ([3]; 25° C./60% RH, 24 months): 99.7 % area | Total related substances ([3]; 25° C./60% RH, 24 months): 0.27% | Water content (%) ([3]; 25° C./60% RH, 24 months): 7.4% | XRPD ([3]; 25° C./60% RH, 24 months): Same | Appearance ([3]; 25° C./60% RH, 36 months): White | Assay (anhydrous w/w %) ([3]; 25° C./60% RH, 36 months): 101.4 w/w % | Chiral purity (area %) ([3]; 25° C./60% RH, 36 months): 99.8 area % | Individual related substance (area %, w/w), RRT 0.31 ([3]; 25° C./60% RH, 36 months): 0.05 area %, w/w | Individual related substance (area %, w/w), RRT 0.46 ([3]; 25° C./60% RH, 36 months): 0.08 area %, w/w | Individual related substance (area %, w/w), RRT 0.64 ([3]; 25° C./60% RH, 36 months): 0.12 area %, w/w | Individual related substance (area %, w/w), RRT 1.20 ([3]; 25° C./60% RH, 36 months): 0.05 area %, w/w | Purity (% area) ([3]; 25° C./60% RH, 36 months): 99.7 % area | Total related substances ([3]; 25° C./60% RH, 36 months): 0.3% | Water content (%) ([3]; 25° C./60% RH, 36 months): 7.5% | XRPD ([3]; 25° C./60% RH, 36 months): Same | anhydrous assay value ([3]; long-term condition through the 36-month interval): around 101% | changes in assay value, total related substances, physical description, or solid state form (XRPD) ([3]; stored at 25° C./60% RH and 40° C./75% RH): No significant changes | Total related substances ([3]; stored at 25° C./60% RH and 40° C./75% RH, remained constant): around 0.25%

— patent US12208071B2, “Glucagon receptor antagonists” (LIGAND PHARMACEUTICALS INCORPORATED, priority 2018, dated 2025)
